Read-outs that look alike come from different tables or passages of the source.
Columns and labels:
[1] = Microsomal stability, human liver microsomes (predicted hepatic clearance); details: predicted from in vitro microsomal stability data
GLP-1R = GLP-1R (Homo sapiens, UniProt P43220); experiment: GLP-1R activation: cAMP increase in CHO cells stably expressing GLP-1R; format: cell-based; details: read-out: EC50
[2] = cAMP increase, CHO cells stably expressing GLP-1R, 10 point dose response, 30 minutes incubation

GLP-1R, sequence (P43220 24-463): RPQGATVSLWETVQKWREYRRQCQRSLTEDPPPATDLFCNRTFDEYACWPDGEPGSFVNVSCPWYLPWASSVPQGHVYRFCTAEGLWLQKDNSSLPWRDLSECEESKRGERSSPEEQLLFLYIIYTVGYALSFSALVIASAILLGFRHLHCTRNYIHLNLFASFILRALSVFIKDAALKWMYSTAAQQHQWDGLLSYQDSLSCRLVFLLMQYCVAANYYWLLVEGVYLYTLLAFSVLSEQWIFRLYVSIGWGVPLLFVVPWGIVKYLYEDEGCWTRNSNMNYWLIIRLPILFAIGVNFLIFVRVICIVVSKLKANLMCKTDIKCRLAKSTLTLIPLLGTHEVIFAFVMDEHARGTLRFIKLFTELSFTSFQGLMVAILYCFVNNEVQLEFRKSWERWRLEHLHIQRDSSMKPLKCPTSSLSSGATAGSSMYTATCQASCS

In the case of N#CCC1(Cn2c(Cc3ccc(-c4cccc(OCc5ccc(C#N)cc5F)n4)c(F)c3)nc3c(F)cc(C(=O)O)cc32)CC1 [Example 287, 2-(4-(6-((4-cyano-2-fluorobenzyl)oxy)pyridin-2-yl)-3-fluorobenzyl)-1-((1-(cyanomethyl)cyclopropyl)methyl)-4-fluoro-1H-benzo[d]imidazole-6-carboxylic acid], the “Predicted Hepatic Clearance (Pred. Cl.)” value [1] is reported as 10.5 mL/min/kg and the EC50 (GLP-1R; [2]) is reported as 0.14 nM.

In the case of CCn1cncc1Cn1c(Cc2ccc(-c3ccc(F)c(OCc4ccc(Cl)cc4F)c3)cc2F)nc2ccc(C(=O)O)cc21 [Example 466, 2-((3′-((4-chloro-2-fluorobenzyl)oxy)-3,4′-difluoro-[1,1′-biphenyl]-4-yl)methyl)-1-((1-ethyl-1H-imidazol-5-yl)methyl)-1H-benzo[d]imidazole-6-carboxylic acid], the “Predicted Hepatic Clearance (Pred. Cl.)” value [1] is reported as 3.83 mL/min/kg and the EC50 (GLP-1R; [2]) is reported as 1.87 nM.

With CO[C@@H]1CN(C(C)=O)C[C@@H]1n1c(Cc2cc(F)c(-c3cccc(OCc4ccc(C#N)cc4F)n3)cc2F)nc2ccc(C(=O)O)cc21 [Example 919] the “Predicted Hepatic Clearance (Pred. Cl.)” value [1] was 4.17 mL/min/kg and the EC50 (GLP-1R) was 840 nM.

In the case of COCCn1c(Cc2c(F)cc(-c3csnc3OCc3ccc(Cl)cc3F)cc2F)nc2ccc(C(=O)O)cc21 [Example 72, 2-(4-(3-((4-chloro-2-fluorobenzyl)oxy)isothiazol-4-yl)-2,6-difluorobenzyl)-1-(2-methoxyethyl)-1H-benzo[d]imidazole-6-carboxylic acid], the “Predicted Hepatic Clearance (Pred. Cl.)” value [1] is reported as 12.3 mL/min/kg and the EC50 (GLP-1R; [2]) is reported as 23.8 nM.

With N#Cc1ccc(COc2nc(-c3cc(F)c(Cc4nc5ccc(C(=O)O)cc5n4C[C@@H]4CCO4)cc3F)ncc2F)c(F)c1 [Example 449, (S)-2-(4-(4-((4-cyano-2-fluorobenzyl)oxy)-5-fluoropyrimidin-2-yl)-2,5-difluorobenzyl)-1-(oxetan-2-ylmethyl)-1H-benzo[d]imidazole-6-carboxylic acid] the “Predicted Hepatic Clearance (Pred. Cl.)” value [1] was 4.33 mL/min/kg and the EC50 (GLP-1R; [2]) was 0.17 nM.

With COCCn1c(Cc2c(F)cc(-c3ccnc(OCc4ccc(C#N)cc4F)n3)cc2F)nc2ccc(C(=O)O)cc21 [Example 378, 2-(4-(2-((4-cyano-2-fluorobenzyl)oxy)pyrimidin-4-yl)-2,6-difluorobenzyl)-1-(2-methoxyethyl)-1H-benzo[d]imidazole-6-carboxylic acid] the “Predicted Hepatic Clearance (Pred. Cl.)” value [1] was 5.5 mL/min/kg and the EC50 (GLP-1R; [2]) was 12.4 nM.

For COCCCn1c(Cc2ccc(-c3cccc(OCc4ccc(C#N)cc4F)n3)cc2F)nc2ccc(C(=O)O)cc21 [Example 390, 2-(4-(6-((4-cyano-2-fluorobenzyl)oxy)pyridin-2-yl)-2-fluorobenzyl)-1-(3-methoxypropyl)-1H-benzo[d]imidazole-6-carboxylic acid], the “Predicted Hepatic Clearance (Pred. Cl.)” value [1] was 7.5 mL/min/kg and the EC50 (GLP-1R; [2]) was 26.4 nM.

For COCCn1c(Cc2ccc(-c3cccc(OCc4ccc(C#N)cc4F)n3)cn2)nc2ccc(C(=O)NS(=O)(=O)C3CC3)cc21 [Example 54, 2-((6-((4-cyano-2-fluorobenzyl)oxy)-[2,3′-bipyridin]-6′-yl)methyl)-N-(cyclopropylsulfonyl)-1-(2-methoxyethyl)-1H-benzo[d]imidazole-6-carboxamide], the “Predicted Hepatic Clearance (Pred. Cl.)” value [1] was 3.83 mL/min/kg and the EC50 (GLP-1R; [2]) was 806 nM.

With COCCn1c(Cc2ccc(-c3cccc(OCc4cccc5c4nnn5C)n3)cc2F)nc2ccc(C(=O)O)cc21 [Example 147, 2-(2-fluoro-4-(6-((1-methyl-1H-benzo[d][1,2,3]triazol-4-yl)methoxy)pyridin-2-yl)benzyl)-1-(2-methoxyethyl)-1H-benzo[d]imidazole-6-carboxylic acid] the “Predicted Hepatic Clearance (Pred. Cl.)” value [1] was 12 mL/min/kg and the EC50 (GLP-1R; [2]) was 760 nM.

For COCCn1c(Cc2ccc(-c3cccc(OCc4c(F)cc(Cl)cc4OC)n3)cc2F)nc2ccc(C(=O)O)cc21 [Example 435, 2-(4-(6-((4-chloro-2-fluoro-6-methoxybenzyl)oxy)pyridin-2-yl)-2-fluorobenzyl)-1-(2-methoxyethyl)-1H-benzo[d]imidazole-6-carboxylic acid], the “Predicted Hepatic Clearance (Pred. Cl.)” value [1] was 6.17 mL/min/kg and the EC50 (GLP-1R; [2]) was 8.7 nM.

For N#Cc1ccc(COc2cccc(-c3ccc(Cc4nc5c(F)cc(C(=O)O)cc5n4C[C@@H]4CCO4)cc3F)n2)c(F)c1 [Example 492, (S)-2-(4-(6-((4-cyano-2-fluorobenzyl)oxy)pyridin-2-yl)-3-fluorobenzyl)-4-fluoro-1-(oxetan-2-ylmethyl)-1H-benzo[d]imidazole-6-carboxylic acid], the “Predicted Hepatic Clearance (Pred. Cl.)” value [1] was less than 1.83 mL/min/kg and the EC50 (GLP-1R; [2]) was 5.16 nM.

With N#Cc1ccc(COc2cccc(-c3ccc(Cc4nc5ccc(C(=O)O)cc5n4C[C@@H]4CCCO4)c(F)c3)n2)c(F)c1 [Example 194, (S)-2-(4-(6-((4-cyano-2-fluorobenzyl)oxy)pyridin-2-yl)-2-fluorobenzyl)-1-((tetrahydrofuran-2-yl)methyl)-1H-benzo[d]imidazole-carboxylic acid] the “Predicted Hepatic Clearance (Pred. Cl.)” value [1] was 4.67 mL/min/kg and the EC50 (GLP-1R; [2]) was 0.86 nM.

For COc1cc(Cl)ccc1COc1nccc(-c2ccc(Cc3nc4ccc(C(=O)O)nc4n3CC3(CF)CC3)cc2F)n1 [Example 233, 2-(4-(2-((4-chloro-2-methoxybenzyl)oxy)pyrimidin-4-yl)-3-fluorobenzyl)-3-((1-(fluoromethyl)cyclopropyl)methyl)-3H-imidazo[4,5-b]pyridine-5-carboxylic acid], the “Predicted Hepatic Clearance (Pred. Cl.)” value [1] was 10.3 mL/min/kg and the EC50 (GLP-1R; [2]) was 1.35 nM.

In the case of N#Cc1ccc(COc2cccc(-c3ccc(Cc4nc5ccc(C(=O)O)cc5n4CC4(CF)CCC4)c(F)c3)n2)c(F)c1 [Example 393, 2-(4-(6-((4-cyano-2-fluorobenzyl)oxy)pyridin-2-yl)-2-fluorobenzyl)-1-((1-(fluoromethyl)cyclobutyl)methyl)-1H-benzo[d]imidazole-6-carboxylic], the “Predicted Hepatic Clearance (Pred. Cl.)” value [1] is reported as 5 mL/min/kg and the EC50 (GLP-1R; [2]) is reported as 33.5 nM.

For COCCn1c(Cc2cc(F)c(-c3cccc(OCc4ccc(C#N)cc4F)n3)cc2F)nc2cc(C)c(C(=O)O)cc21 [Example 926, 2-(4-(6-((4-cyano-2-fluorobenzyl)oxy)pyridin-2-yl)-2,5-difluorobenzyl)-1-(2-methoxyethyl)-5-methyl-1H-benzo[d]imidazole-6-carboxylic acid], the “Predicted Hepatic Clearance (Pred. Cl.)” value [1] was 1.83 mL/min/kg and the EC50 (GLP-1R; [2]) was 11.8 nM.

For N#Cc1ccc(COc2cccc(-c3cnc(Cc4nc5ccc(C(=O)O)cc5n4C[C@@H]4CCO4)c(F)c3)n2)c(F)c1 [Example 682], the “Predicted Hepatic Clearance (Pred. Cl.)” value [1] was 2.5 mL/min/kg and the EC50 (GLP-1R; [2]) was 0.59 nM.

For COCCn1c(Cc2c(F)cc(-c3cccnc3OCc3cc(Cl)ccc3F)cc2F)nc2ccc(C(=O)O)cc21 [Example 408, 2-(4-(2-((5-chloro-2-fluorobenzyl)oxy)pyridin-3-yl)-2,6-difluorobenzyl)-1-(2-methoxyethyl)-1H-benzo[d]imidazole-6-carboxylic acid], the “Predicted Hepatic Clearance (Pred. Cl.)” value [1] was 10.1 mL/min/kg and the EC50 (GLP-1R; [2]) was no less than 1000 nM.

In the case of N#Cc1cc(F)c(COc2nccc(-c3cc(F)c(Cc4nc5ccc(C(=O)O)cc5n4C[C@@H]4CCO4)cc3F)n2)cc1F [Example 786], the “Predicted Hepatic Clearance (Pred. Cl.)” value [1] is reported as 1.83 mL/min/kg and the EC50 (GLP-1R; [2]) is reported as 0.22 nM.

In the case of COCCn1c(Cc2ccc(-c3cccc(OCc4nccnc4OC)n3)cc2F)nc2ccc(C(=O)O)cc21 [Example 493, 2-(2-fluoro-4-(6-((3-methoxypyrazin-2-yl)methoxy)pyridin-2-yl)benzyl)-1-(2-methoxyethyl)-1H-benzo[d]imidazole-6-carboxylic acid], the “Predicted Hepatic Clearance (Pred. Cl.)” value [1] is reported as 19.2 mL/min/kg and the EC50 (GLP-1R; [2]) is reported as 255 nM.

In the case of COCCn1c(Cc2ccc(-c3cccc(OCc4ccc(C(F)(F)F)cc4)n3)cc2F)nc2ccc(C(=O)O)cc21 [Example 508, 2-(2-fluoro-4-(6-((4-(trifluoromethyl)benzyl)oxy)pyridin-2-yl)benzyl)-1-(2-methoxyethyl)-1H-benzo[d]imidazole-6-carboxylic acid], the “Predicted Hepatic Clearance (Pred. Cl.)” value [1] is reported as 2.5 mL/min/kg and the EC50 (GLP-1R; [2]) is reported as 16.5 nM.

In the case of CCc1cnccc1Cn1c(Cc2ccc(-c3cccc(OCc4ccc(C#N)cc4F)n3)c(F)c2)nc2ccc(C(=O)O)cc21 [Example 534, 2-(4-(6-((4-cyano-2-fluorobenzyl)oxy)pyridin-2-yl)-3-fluorobenzyl)-1-((3-ethylpyridin-4-yl)methyl)-1H-benzo[d]imidazole-6-carboxylic acid], the “Predicted Hepatic Clearance (Pred. Cl.)” value [1] is reported as 15.2 mL/min/kg and the EC50 (GLP-1R; [2]) is reported as 49.9 nM.

With N#Cc1ccc(COc2cccc(-c3ccc(Cc4nc5ccc(C(=O)O)cc5n4Cc4ncco4)c(F)c3)n2)c(F)c1 [Example 371, 2-(4-(6-((4-cyano-2-fluorobenzyl)oxy)pyridin-2-yl)-2-fluorobenzyl)-1-(oxazol-2-ylmethyl)-1H-benzo[d]imidazole-6-carboxylic acid] the “Predicted Hepatic Clearance (Pred. Cl.)” value [1] was 3 mL/min/kg and the EC50 (GLP-1R; [2]) was 1.61 nM.

With N#Cc1ccc(COc2nc(-c3ccc(Cc4nc5ccc(C(=O)O)cc5n4CC4(CF)CC4)c(F)c3)ccc2F)c(F)c1 [Example 134, 2-(4-(6-((4-cyano-2-fluorobenzyl)oxy)-5-fluoropyridin-2-yl)-2-fluorobenzyl)-1-((1-(fluoromethyl)cyclopropyl)methyl)-1H-benzo[d]imidazole-6-carboxylic acid] the “Predicted Hepatic Clearance (Pred. Cl.)” value [1] was less than 1.83 mL/min/kg and the EC50 (GLP-1R; [2]) was 0.34 nM.

With COc1cc(Cl)ccc1COc1nccc(-c2ccc(Cc3nc4ccc(C(=O)O)cc4n3CC3(CF)CC3)cc2F)n1 [Example 75, 2-(4-(2-((4-chloro-2-methoxybenzyl)oxy)pyrimidin-4-yl)-3-fluorobenzyl)-1-((1-(fluoromethyl)cyclopropyl)methyl)-1H-benzo[d]imidazole-6-carboxylic acid] the “Predicted Hepatic Clearance (Pred. Cl.)” value [1] was 13.8 mL/min/kg and the EC50 (GLP-1R; [2]) was 0.6 nM.

In the case of COCCn1c(Cc2ccc(-c3cccc(OCc4ncc(Cl)s4)n3)cc2F)nc2ccc(C(=O)O)cc21 [Example 592, 2-(4-(6-((5-chlorothiazol-2-yl)methoxy)pyridin-2-yl)-2-fluorobenzyl)-1-(2-methoxyethyl)-1H-benzo[d]imidazole-6-carboxylic acid], the “Predicted Hepatic Clearance (Pred. Cl.)” value [1] is reported as 12 mL/min/kg and the EC50 (GLP-1R; [2]) is reported as 33.3 nM.

In the case of Cc1nc(Cn2c(Cc3cc(F)c(-c4cccc(OCc5ccc(C#N)cc5F)n4)cc3F)nc3ccc(C(=O)O)cc32)oc1C [Example 615], the “Predicted Hepatic Clearance (Pred. Cl.)” value [1] is reported as 2.33 mL/min/kg and the EC50 (GLP-1R; [2]) is reported as 1420 nM.
